As usually defined, the EC50 is the concentration at which the effect is half-maximal. A word on the IC50: it is the concentration that gives 50% inhibition. What is called logP is the decadic logarithm of the partition coefficient of the neutral form, usually between octanol and water. A higher logP goes with a more lipophilic compound.

Data on 9 compounds can be found in article PMC2635097 (Molecular pharmacology, 2008).

Where two headings read alike, the source gives them in different places. Positions of bridges follow the written chain, without caps; N, C: chain ends. No end group written: not given here.

One data set has as its system KCa2.3. Particulars: read-out: EC50 KCa2.3 currents; ref Hougaard et al., 2007; cited from earlier work.
A further data set relates to KCa2.1. Particulars: ref Hougaard et al., 2007; cited from earlier work.
In another data set the test system is KCa2.2. Particulars: cited from earlier work.
Another data set deals with cloned KCa3.1 channels. Particulars: cited from earlier work.
The subject of another data set is KCa2/3 channels. Particulars: ref Strøbæk et al., 2004; cited from earlier work.
The target of a further data set is hKCa2.3 (Homo sapiens, UniProt Q9UGI6). Briefly: Whole-cell patch-clamp of KCa2.3 currents. Format: cell-based. (In patch-clamp work, channel activity is measured electrically.)
For a further data set, the target named is rKCa2.2 (Rattus norvegicus, UniProt P70604). Briefly: Whole-cell patch-clamp of KCa2.2 currents. The data set is classed as cell-based.
In another data set the target is hKCa1.1 (Homo sapiens, UniProt Q12791). Briefly: Selectivity patch-clamp, KCa1.1 currents. Format: cell-based. Particulars: 1 μM free Ca2+.
The target of another data set is hKCa3.1 (Homo sapiens, UniProt O15554). Briefly: Whole-cell patch-clamp of KCa3.1 currents. Format: cell-based.
The target of another data set is hKv1.5 (Homo sapiens, UniProt P22460). Briefly: Selectivity patch-clamp, Kv1.5 currents. Format: cell-based.
In a further data set the target is Rat Kv3.2 (Rattus norvegicus, UniProt P22462). In words: Selectivity patch-clamp, Kv3.2 currents. Format: cell-based.
In another data set the target is hKCa2.1 (Homo sapiens, UniProt Q92952). In words: Whole-cell patch-clamp of KCa2.1 currents. Format: cell-based.
The target of another data set is T1, K2P2.1 (TREK-1) (Mus musculus, UniProt P97438).
T1 sequence (P97438 1-426): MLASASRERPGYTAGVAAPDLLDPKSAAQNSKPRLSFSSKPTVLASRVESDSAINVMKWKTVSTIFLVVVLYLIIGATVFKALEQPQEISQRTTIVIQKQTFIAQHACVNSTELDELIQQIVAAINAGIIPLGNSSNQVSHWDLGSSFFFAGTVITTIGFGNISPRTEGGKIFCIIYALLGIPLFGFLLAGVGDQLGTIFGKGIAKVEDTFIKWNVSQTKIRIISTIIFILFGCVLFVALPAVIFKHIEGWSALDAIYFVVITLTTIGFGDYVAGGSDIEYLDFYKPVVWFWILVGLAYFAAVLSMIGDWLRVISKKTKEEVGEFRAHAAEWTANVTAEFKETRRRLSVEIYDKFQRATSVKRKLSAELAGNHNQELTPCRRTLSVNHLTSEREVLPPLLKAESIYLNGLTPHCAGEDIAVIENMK
Briefly: Selectivity patch-clamp, endothelial cell TREK-1 currents. The data set is classed as cell-based.

A further data set deals with mKv3.1 (Mus musculus, UniProt P15388). Briefly: Selectivity patch-clamp, Kv3.1 currents. The data set is classed as cell-based.
The next data set has as its target mKv1.1 (Mus musculus, UniProt P16388). Briefly: Selectivity patch-clamp, Kv1.1 currents. The data set is classed as cell-based.
The target in another data set is T2, rKv4.2 (Rattus norvegicus, UniProt Q63881).
T2 sequence (Q63881 1-630): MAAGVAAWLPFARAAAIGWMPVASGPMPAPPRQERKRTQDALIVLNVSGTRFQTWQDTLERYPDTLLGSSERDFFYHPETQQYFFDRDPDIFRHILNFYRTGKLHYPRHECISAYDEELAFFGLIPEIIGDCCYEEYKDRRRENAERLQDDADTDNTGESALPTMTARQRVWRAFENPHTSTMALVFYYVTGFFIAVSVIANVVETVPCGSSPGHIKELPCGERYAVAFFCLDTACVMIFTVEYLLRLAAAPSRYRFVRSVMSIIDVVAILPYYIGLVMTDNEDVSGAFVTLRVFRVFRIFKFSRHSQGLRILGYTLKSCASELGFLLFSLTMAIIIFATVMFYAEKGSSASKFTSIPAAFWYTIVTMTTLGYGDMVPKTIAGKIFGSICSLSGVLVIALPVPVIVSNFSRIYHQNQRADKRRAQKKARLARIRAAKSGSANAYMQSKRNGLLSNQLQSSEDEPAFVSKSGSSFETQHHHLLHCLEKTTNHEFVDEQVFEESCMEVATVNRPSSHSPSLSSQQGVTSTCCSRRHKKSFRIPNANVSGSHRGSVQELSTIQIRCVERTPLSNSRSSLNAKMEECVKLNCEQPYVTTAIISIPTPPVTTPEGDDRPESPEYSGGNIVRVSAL
In words: Selectivity patch-clamp, Kv4.2 currents. The data set is classed as cell-based.

A further data set addresses Nav1.2 (Mus musculus, UniProt B1AWN6). Briefly: Selectivity patch-clamp, Nav1.2 currents from N1E-115 cells. Format: cell-based.
For another data set, the target named is Rat Nav1.5 (Rattus norvegicus, UniProt P15389). In words: Selectivity patch-clamp, Nav1.5 currents. Format: cell-based.
A further data set is described as follows: logP. The data set is classed as physicochemical.
For another data set, the target named is hNav1.4 (Homo sapiens, UniProt P35499). In words: Selectivity patch-clamp, Nav1.4 currents. The data set is classed as cell-based. Particulars: 10 μM.
Data set [1] deals with mice. Briefly: Maximal electroshock. Format: in vivo, mouse. Particulars: 100 mg/kg i.p., 15 min, 30 min and 1 hour. In general terms: The maximal electroshock test induces tonic seizures with an electrical stimulus.
The test system of data set [2] is mice. Format: in vivo, mouse. Particulars: 100 mg/kg i.p., 15 min, 30 min and 1 hour.

Sequence of hKCa2.3 (Q9UGI6 whole entry): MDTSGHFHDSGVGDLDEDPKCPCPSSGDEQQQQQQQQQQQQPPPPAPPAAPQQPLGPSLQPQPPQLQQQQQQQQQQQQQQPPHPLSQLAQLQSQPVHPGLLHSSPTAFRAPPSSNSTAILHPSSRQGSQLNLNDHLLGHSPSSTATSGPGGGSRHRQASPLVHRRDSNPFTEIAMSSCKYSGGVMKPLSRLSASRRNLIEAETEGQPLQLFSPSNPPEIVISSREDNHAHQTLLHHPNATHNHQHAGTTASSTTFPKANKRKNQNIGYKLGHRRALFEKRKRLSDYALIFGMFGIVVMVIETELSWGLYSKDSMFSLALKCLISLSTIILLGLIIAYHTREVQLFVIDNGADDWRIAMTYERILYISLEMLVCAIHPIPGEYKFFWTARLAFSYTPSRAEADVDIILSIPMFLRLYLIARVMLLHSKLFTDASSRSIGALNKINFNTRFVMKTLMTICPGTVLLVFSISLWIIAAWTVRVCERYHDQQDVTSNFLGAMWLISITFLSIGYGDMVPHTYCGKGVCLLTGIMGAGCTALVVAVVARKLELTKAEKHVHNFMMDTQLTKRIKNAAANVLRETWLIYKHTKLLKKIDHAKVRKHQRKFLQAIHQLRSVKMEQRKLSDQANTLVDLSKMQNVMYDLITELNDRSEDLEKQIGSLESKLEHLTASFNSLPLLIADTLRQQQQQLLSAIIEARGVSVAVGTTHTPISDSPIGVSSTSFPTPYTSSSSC
Sequence of hKCa3.1 (O15554 whole entry): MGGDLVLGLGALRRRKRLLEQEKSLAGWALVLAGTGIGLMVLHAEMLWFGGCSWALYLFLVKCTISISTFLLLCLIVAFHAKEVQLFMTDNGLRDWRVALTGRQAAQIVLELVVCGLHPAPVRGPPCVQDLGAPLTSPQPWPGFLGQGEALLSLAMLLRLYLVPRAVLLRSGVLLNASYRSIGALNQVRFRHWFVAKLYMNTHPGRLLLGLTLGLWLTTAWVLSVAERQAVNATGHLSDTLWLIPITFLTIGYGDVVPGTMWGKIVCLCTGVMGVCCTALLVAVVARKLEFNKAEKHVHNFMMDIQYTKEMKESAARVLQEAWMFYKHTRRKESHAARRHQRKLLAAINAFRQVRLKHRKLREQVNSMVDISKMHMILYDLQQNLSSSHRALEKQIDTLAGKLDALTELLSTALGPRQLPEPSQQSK
Sequence of hKCa1.1 (Q12791 whole entry): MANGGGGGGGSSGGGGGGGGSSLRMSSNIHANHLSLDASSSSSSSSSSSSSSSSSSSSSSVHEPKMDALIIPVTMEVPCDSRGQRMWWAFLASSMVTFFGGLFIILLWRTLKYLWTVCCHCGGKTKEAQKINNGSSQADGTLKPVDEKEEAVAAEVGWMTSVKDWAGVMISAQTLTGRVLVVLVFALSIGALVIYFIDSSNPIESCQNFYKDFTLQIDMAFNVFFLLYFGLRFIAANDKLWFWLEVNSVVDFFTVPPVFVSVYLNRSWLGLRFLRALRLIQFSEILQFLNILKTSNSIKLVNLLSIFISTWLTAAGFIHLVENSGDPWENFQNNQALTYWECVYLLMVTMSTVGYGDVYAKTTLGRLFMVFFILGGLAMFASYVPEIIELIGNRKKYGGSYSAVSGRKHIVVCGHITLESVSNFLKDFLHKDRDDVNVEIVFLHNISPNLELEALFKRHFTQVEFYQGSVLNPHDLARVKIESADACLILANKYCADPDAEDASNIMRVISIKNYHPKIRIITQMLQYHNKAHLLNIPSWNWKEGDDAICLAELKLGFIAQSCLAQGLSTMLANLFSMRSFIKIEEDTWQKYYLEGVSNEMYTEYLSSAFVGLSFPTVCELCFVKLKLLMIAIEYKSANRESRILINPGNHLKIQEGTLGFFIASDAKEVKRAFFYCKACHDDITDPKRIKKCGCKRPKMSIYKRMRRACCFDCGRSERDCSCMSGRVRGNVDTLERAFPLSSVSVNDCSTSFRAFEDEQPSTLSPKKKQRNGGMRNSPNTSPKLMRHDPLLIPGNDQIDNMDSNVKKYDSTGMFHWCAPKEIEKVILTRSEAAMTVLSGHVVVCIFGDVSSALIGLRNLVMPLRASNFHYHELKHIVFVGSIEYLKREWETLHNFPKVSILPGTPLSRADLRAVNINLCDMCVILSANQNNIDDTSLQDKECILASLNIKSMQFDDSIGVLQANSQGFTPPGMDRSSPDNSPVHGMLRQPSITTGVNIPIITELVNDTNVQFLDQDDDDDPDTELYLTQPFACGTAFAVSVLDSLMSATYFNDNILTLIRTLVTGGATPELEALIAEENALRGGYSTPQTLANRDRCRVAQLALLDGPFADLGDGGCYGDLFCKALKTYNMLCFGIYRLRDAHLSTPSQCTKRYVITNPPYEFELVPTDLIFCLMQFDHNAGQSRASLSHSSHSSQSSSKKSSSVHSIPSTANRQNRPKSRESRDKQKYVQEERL
Sequence of Nav1.2 (B1AWN6 whole entry): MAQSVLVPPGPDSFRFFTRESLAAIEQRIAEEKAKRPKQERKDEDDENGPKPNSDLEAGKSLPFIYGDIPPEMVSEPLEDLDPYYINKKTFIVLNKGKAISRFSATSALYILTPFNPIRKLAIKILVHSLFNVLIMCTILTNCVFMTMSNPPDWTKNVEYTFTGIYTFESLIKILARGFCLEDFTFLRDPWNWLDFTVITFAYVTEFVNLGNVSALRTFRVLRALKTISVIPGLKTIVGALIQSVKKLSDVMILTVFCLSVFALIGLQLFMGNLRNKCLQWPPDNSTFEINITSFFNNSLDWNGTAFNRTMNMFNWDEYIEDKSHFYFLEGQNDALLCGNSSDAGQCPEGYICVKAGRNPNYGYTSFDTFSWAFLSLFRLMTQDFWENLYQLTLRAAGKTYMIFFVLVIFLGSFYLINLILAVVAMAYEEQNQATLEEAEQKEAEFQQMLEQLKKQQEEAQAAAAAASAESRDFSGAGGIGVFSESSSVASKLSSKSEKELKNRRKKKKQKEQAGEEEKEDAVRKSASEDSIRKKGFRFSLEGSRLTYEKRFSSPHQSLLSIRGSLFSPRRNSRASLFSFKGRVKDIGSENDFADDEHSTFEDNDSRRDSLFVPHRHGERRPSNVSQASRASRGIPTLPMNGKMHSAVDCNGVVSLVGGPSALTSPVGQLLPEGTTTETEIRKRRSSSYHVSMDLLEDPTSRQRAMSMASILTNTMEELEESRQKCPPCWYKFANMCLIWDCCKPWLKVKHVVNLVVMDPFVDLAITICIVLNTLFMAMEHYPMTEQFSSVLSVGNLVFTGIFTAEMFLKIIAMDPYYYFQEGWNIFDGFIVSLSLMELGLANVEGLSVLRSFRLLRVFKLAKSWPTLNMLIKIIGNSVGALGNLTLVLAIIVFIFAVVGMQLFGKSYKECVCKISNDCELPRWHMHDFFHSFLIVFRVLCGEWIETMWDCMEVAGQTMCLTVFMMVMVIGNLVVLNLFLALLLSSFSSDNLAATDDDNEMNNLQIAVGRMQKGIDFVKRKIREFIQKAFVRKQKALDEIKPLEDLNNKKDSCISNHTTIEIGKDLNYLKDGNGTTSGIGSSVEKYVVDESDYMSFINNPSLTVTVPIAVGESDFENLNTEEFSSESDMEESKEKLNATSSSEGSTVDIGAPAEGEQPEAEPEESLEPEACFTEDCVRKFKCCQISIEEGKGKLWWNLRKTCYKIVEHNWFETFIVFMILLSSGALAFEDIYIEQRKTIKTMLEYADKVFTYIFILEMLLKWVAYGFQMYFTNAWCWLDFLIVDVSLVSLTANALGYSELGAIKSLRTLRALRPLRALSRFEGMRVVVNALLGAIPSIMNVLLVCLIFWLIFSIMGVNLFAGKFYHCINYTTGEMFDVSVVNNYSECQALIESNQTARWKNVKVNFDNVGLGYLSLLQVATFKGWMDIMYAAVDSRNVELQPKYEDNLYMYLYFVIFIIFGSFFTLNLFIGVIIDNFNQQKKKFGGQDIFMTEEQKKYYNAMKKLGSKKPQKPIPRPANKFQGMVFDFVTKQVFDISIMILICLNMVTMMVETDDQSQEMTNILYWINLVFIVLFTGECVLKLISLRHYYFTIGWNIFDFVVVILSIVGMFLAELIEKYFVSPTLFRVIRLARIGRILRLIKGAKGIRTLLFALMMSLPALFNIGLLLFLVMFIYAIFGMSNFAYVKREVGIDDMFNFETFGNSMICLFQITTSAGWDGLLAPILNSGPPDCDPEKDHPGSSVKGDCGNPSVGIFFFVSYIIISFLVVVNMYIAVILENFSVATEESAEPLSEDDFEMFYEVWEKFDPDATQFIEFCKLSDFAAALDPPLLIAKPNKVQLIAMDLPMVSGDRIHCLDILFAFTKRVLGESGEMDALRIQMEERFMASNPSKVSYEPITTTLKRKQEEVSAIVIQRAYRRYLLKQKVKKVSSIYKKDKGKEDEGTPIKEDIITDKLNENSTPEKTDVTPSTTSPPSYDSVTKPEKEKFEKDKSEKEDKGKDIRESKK
Sequence of hKCa2.1 (Q92952 whole entry): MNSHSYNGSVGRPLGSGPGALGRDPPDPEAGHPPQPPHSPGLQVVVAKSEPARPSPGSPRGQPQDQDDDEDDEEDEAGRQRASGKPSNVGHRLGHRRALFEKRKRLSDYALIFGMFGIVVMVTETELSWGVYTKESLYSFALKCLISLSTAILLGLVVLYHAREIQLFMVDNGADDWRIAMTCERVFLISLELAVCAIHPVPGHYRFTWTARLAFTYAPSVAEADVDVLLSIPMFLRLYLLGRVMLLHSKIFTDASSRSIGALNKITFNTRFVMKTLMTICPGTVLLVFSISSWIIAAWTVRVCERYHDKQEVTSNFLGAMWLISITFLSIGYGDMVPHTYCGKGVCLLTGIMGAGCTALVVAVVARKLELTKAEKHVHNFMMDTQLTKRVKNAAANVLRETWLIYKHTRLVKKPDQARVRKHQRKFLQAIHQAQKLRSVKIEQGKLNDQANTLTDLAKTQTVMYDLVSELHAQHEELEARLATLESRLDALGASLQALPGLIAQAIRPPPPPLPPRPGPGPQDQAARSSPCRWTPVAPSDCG

Turning to `Cc1cc(NC2CCCCC2)nc(-n2nc(C)cc2C)n1` [CyPPA], the EC50 in the data set on KCa2.3 was 6 µM; in the data set on KCa2.2 (read-out: EC50 KCa2.2 currents, ref Hougaard et al., 2007) it was 14 µM. Besides, in the data set with KCa2.1, the “effect on KCa2.1” value is given as “no effect”. For the same compound, in the data set on cloned KCa3.1 channels (ref Hougaard et al., 2007), the “effect on KCa3.1” value is given as “no effect”.
Consider `CCn1c(=O)[nH]c2cc(Cl)c(Cl)cc21` [DCEBIO, 5,6-dichloro-EBIO], for which the EC50 in the data set on KCa2.2 (read-out: EC50 KCa2.2, ref Pedarzani et al., 2001) was 27 µM; in the data set on cloned KCa3.1 channels (read-out: EC50 KCa3.1, ref Singh et al., 2001), 0.75 µM.
`CCn1c(=O)[nH]c2ccccc21` [EBIO, 1-ethylbenzimidazolin-2-one]: the EC50 in the data set with cloned KCa3.1 channels (read-out: EC50 cloned KCa3.1 channels, ref Wulff et al., 2007) was 30 µM.
Turning to `O=C1Nc2c(ccc(Cl)c2Cl)C1=NO` [NS309, 6,7-dichloro-1H-indole-2,3-dione 3-oxime], the “concentrations activating KCa2 and KCa3.1 channels” value with KCa2/3 channels is “submicromolar concentrations”.
Take `Cl.c1ccc2c(c1)CCC[C@H]2Nc1nc2ccccc2[nH]1` [NS8593, N-[(1R)-1,2,3,4-tetrahydro-1-naphthalenyl]-1H-benzimidazol-2-amine hydrochloride]: the IC50 at hKCa2.3 (read-out: IC50 inhibition of KCa2.3 currents, absence of SKA-31) was 0.7 µM. Besides, the “shift of IC50 on KCa2.3 by SKA-31” value on hKCa2.3 (with versus without SKA-31) is “roughly 10 fold”.
Take `Nc1nc2ccc(OC(F)(F)F)cc2s1` [Riluzole, 2-amino-6-[trifluoromethoxy]benzothiazole, reference compound]: the concentration for a half-maximal effect (EC50) on rKCa2.2 amounted to 12.8 µM; on hKCa3.1 it was 1.9 µM; at hKCa2.1, 21 µM; on K2P2.1 (TREK-1) it was 110 ± 35 µM. Further, on hKCa1.1 (100 μM), the “effect on KCa1.1 current at 100 μM” value is on record as “Doubles current at 100 μM”. The results for the “increase of KCa3.1 currents” value at hKCa3.1 (250 nM [Ca2+]i) and at hKCa3.1 (1 μM [Ca2+]i) were roughly 30 fold and “roughly 3 fold”, respectively. The IC50 against hKv1.5 is 95 ± 5 µM; against Rat Kv3.2, 100 ± 10 µM; at mKv3.1 it was 95 ± 5 µM; against mKv1.1 it was 92 ± 7 µM; at rKv4.2, 130 ± 10 µM; against Nav1.2, 15 ± 3 µM.
With `Nc1nc2ccc3cc4ccccc4cc3c2s1` [SKA-20, Anthra[2,1-d]thiazol-2-ylamine], the EC50 on rKCa2.2 was 1.9 µM; at hKCa3.1, 0.115 µM; at hKCa2.3 (read-out: EC50 KCa2.3 activation, 250 nM [Ca2+]i), 1.2 µM; on hKCa2.1, 0.43 µM. In addition, the “effect on KCa1.1 current at 10 μM” value on hKCa1.1 (10 μM) is “No effect at 10 μM”. Moreover, the “Kv3.2 block at 10 μM” value at Rat Kv3.2 (10 μM) is 12 ± 5% block at 10 μM. Further, the “K2P2.1 (TREK-1) effect at 10 μM” value on K2P2.1 (TREK-1) (10 μM) is “No effect at 10 μM”. Moreover, the “Nav1.5 block at 10 μM” value at Rat Nav1.5 is 30 ± 5% block at 10 μM. Further, the “Kv3.1 block at 10 μM” value on mKv3.1 (10 μM) is reported as 35 ± 3% block at 10 μM. In “logP”, the logP worked out at 3.1. The “Kv1.1 block at 10 μM” value at mKv1.1 (10 μM) came out at 12 ± 3%block at 10 μM. In addition, at hNav1.4, the “Nav1.4 block at 10 μM” value was “No effect at 10 μM”. At rKv4.2 (10 μM), the “Kv4.2 block at 10 μM” value came out at 10 ± 3% block at 10 μM. Further, the midpoint of inhibition on Nav1.2, the IC50, lay at 14 ± 2 µM.
In the case of `Nc1nc2cc3c(cc2s1)CCC3` [SKA-29, 6,7-Dihydro-5H-indeno[5,6-d]thiazol-2-amine], the “protection from seizures, maximal electroshock (MES) model” value in the data set with mice [1] is reported as “effectively protect mice from seizures”. Further, the “protection from seizures, 6 Hz minimal electroshock model” value with mice [2] is on record as “effectively protect mice from seizures”.
Turning to “apamin (CNCKAPETALCARRCQQH-NH2; disulfide 1-11, 3-15; ends not checked; UniProt P01500 28-45, looked up)”, the IC50 in the data set with hKCa2.3 (read-out: IC50 blockade of hKCa2.3 currents, currents activated with 10 μM SKA-31, 250 nM free Ca2+) is roughly 0.001 µM.
